Values quoted from earlier work in US20250288577A1, “METHODS OF TREATING A VIRUS INFECTION AND METHODS OF INHIBITING VIRAL REPLICATION” (CORNELL UNIVERSITY, priority 2022, published 2025).

Legend:
[1] = test system: Adenovirus; conditions: reported in literature
[2] = test system: influenza A; conditions: reported in literature

SMILES: O=C(Cc1cccc(OC(F)(F)F)c1)Nc1ccc(CCCCc2nnc(NC(=O)Cc3ccccn3)s2)nn1 [CB839, Telaglenastat]
- block of Adenovirus [1]: block
- block of influenza A [2]: block
